We go through four compounds from ChEMBL document CHEMBL3045674, “Synthesis of N-[3-(acetylthio)alkanoyl] and N-[3-mercaptoalkanoyl]-4-(s)-(phenylmethyl) pyroglutamic acids and prolines as potent ACE inhibitors” (2009).

Active and inactive are the calls of the source. The rule behind the calls is not given here.

Experiment [1] relates to Rattus norvegicus. Kind of experiment: Antihypertensive activity in Rattus norvegicus Sprague-Dawley (rat) assessed as inhibition of angiotensin-1-induced increase in blood pressure at 10 ug/kg, iv administered 5 min before angiotensin-1 challenge. The class given is functional.
Experiment [2] deals with Rattus norvegicus. Kind of experiment: Antihypertensive activity in Rattus norvegicus Sprague-Dawley (rat) assessed as inhibition of angiotensin-1-induced increase in blood pressure at 30 ug/kg, iv administered 5 min before angiotensin-1 challenge. The class given is functional.

Consider `C[C@H](CS)C(=O)N1CCC[C@H]1C(=O)O` [CAPTOPRIL], for which the inhibition in vivo (in general, the relative decrease from the control value, in per cent) at 0.01 mg/kg in the experiment with Rattus norvegicus [1] is 60%.
As to `CC(=O)SC[C@@H](C)C(=O)N1C(=O)[C@@H](Cc2ccccc2)C[C@H]1C(=O)O`, the inhibition result in the experiment on Rattus norvegicus [1] is “inactive”. In the experiment with Rattus norvegicus [2], the inhibition in vivo at 0.03 mg/kg was determined as 60%.
As for `CC(=O)SCCC(=O)N1C(=O)[C@@H](Cc2ccccc2)C[C@H]1C(=O)O`, the inhibition in vivo at 0.01 mg/kg with Rattus norvegicus [1] worked out at 13%. In addition, the inhibition in vivo at 0.03 mg/kg in the experiment on Rattus norvegicus [2] was 20%.
On to `CC(=O)SC[C@@H](C)C(=O)N1C[C@@H](Cc2ccccc2)C[C@H]1C(=O)O`, for which, in the experiment with Rattus norvegicus [1], the inhibition in vivo at 0.01 mg/kg came out at 22%.
